Test results as given in patent publication US11773379B2, “Enzymes and reagents for measurement of short chain fatty acids” (SYSMEX CORPORATION, priority 2018, dated 2023).

B1: StBK: Symbiobacterium thermophilum-derived butyrate kinase prepared in Reference Example 6 (SEQ ID NO: 25, His tag) (protein, listed as Symbiobacterium thermophilum)
chain: MQQRLLIINPGSTSTKIAVYDDDSPLFAETLRHSAADLACFRDVAAQFPFRRDLILEALDAHGVSLSSLTAVVGRGGLLRPVRGGTYRVDAAMLAELSRAAHGEHASNLGALLAHEIAQAAGGVPAFIVDPVVVDELEPVARLTGLPEMPRRSVFHALNQKAVARRAAADLGRAYTEVNLVVVHLGGGISVGAHRRGRVVDVNNALDGEGPMAPERAGTVPSLGLVHLAFSWQHTLREVGRMLVGRGGLVAHVGTNDARRVEERIAAGDEAARVAYRAMAYQVAKEVGRAAVALGGQVDRIVLTGGLAHSEMLTGWIAEQVEWIAPVAVYPGEDEMAALAAGALRVLRGEEPAQVYGEAGE
modifications: His tag
B2: ToBK2: Thermosediminibacter oceani-derived butyrate kinase prepared in Reference Example 4 (SEQ ID NO: 21, His tag) (protein, listed as Thermosediminibacter oceani)
chain: MEKFRILAINPGSTSTKISIFHGEEEVFTENIVHDYEELKKFKNVIEQEGYRYEAILNALAARGYSLDEIDVVVARGGILRPVKAGTYRINDLMLEDLKDAVAGEHASNVAAFIAHRIGAEKGIPAYIVDPVSVDEMEDVARISGLDGIERKSLSHALNIRRVIYKVSEKFGKDPGELNFIVAHLGGGISIGAIRRGQMVDVESANCEGPFSPERSGGLPILELIDLCFSGRFTKDELKRRLIQEGGVYSYLGTKDIREVEERTRSGDKKAALILEAMVYQIAKCIGQMATVLKGDVDFIILTGGIAKSDYISECIADRVKFIAPVERVPGEEEMKALAEAACRVMTGREKVLDYGGGE
modifications: His tag
B3: NtBK: Natranaerobius thermophilus-derived butyrate kinase prepared in Reference Example 5 (SEQ ID NO: 23, His tag) (protein)
chain: MKQEHRLLVINPGSTSTKIAVYEGESPLIEKKLEHSPEELNKFQDIIDQYDFRKDSILNFLDEQGMNFNKLDAVVARGGLLKPISGGTFKVNDLMVEHLRQGYQGEHASNLGGIIAKEISNQLDIPAYIVDPVVVDELQDIARISGFEPIERKSIFHALNHKAVARKAAAQLGKKYEEANLVVVHLGGGISVGAHNCGDVIDVNNALDGEGPFSPERSGGLPNGDLVRYIDEHNLTWKELKRQLVGNGGLVSYLDTNDGKKVQEMIQSGDEKAEKVYEAMIYQIAKEIGSCAVVLKGELDAIVLTGGLAHDEYLVSRMKEYIKFLGEILVFPGEDEMQSLAEGGLRVLRNEETPKDYS
modifications: His tag; Natranaerobius thermophiles

Experiments:
[1] = test system: BKII (recombinant butyrate kinase derived from Acetoanaerobium sticklandii); assay: Substrate specificity of butyrate kinase BKII; format: biochemical; conditions: 100 mM sodium salt of fatty acid in second reagent, pH 7.5
Procedure: (§1) Various fatty acids shown in Table 1 were used as a substrate. The measurement was performed using a 7180 type Hitachi automatic analyzer (Hitachi High-Tech Corporation). […] PHARMA CORPORATION) • 5 U/mL ADP-HK II (ADP dependent hexokinase: […] PHARMA CORPORATION) […] In the composition of the second reagent, “sodium salts of various fatty acids” means any one kind of sodium caprylate, sodium caproate, sodium valerate, sodium isovalerate, sodium butyrate, sodium isobutyrate, sodium propionate, sodium acetate, sodium lactate, and sodium succinate. Isobutyric acid, valeric acid, isovaleric acid, caproic acid, and octanoic acid, which are commercially available fatty acids and are not sold as sodium salts, were adjusted to pH 7.5 with sodium hydroxide. […] [Measurement Parameters of Automatic Analyzer] • Analysis method: […]

[2] = test system: BKIII (recombinant butyrate kinase derived from Thermosediminibacter oceani); assay: Substrate specificity of butyrate kinase BKIII; format: biochemical; conditions: 100 mM sodium salt of fatty acid in second reagent, pH 7.5
Procedure: as §1

[3] = Thermal stability of recombinant butyrate kinase (remaining activity); format: physicochemical; conditions: after incubating at 65° C. for 30 minutes; 50 mM potassium phosphate pH 7, 0.1% TN-100, about 1 mg/mL
Procedure: The thermal stability of BKII was examined based on the remaining activity after incubating approximately 0.3 mg/mL BKII at each temperature of 4 to 50° C. for 30 minutes in 10 mM Tris-HCl buffer (pH 7.5) containing 100 mM KCl. The thermal stability of BKIII was examined based on the remaining activity after incubating approximately 1 mg/mL BKIII in 50 mM potassium phosphate buffer (pH 7) containing 0.1% TN-100 (ADEKA Corporation) at each temperature of 4 to 80° C. for 30 minutes. The remaining activity was measured in the same manner as in Example 1. From FIGS. 12 and 13, the thermal stability (remaining activity) of BKII was 50% or more after treatment at 37° C. for 30 minutes, and the thermal stability (remaining activity) of BKIII was 85% or more after treatment at 70° C. for 30 minutes.
The thermal stability of BKIII, Thermosediminibacter oceani-derived butyrate kinase (ToBK2) prepared in Reference Example 4, Natranaerobius thermophilus-derived butyrate kinase (NtBK) prepared in Reference Example 5, and Symbiobacterium thermophilum-derived butyrate kinase (StBK) prepared in Reference Example 6 were compared. Specifically, each butyrate kinase was added to a 50 mM potassium phosphate buffer (pH 7) containing 0.1% TN-100 so that the concentration is about 1 mg/mL, and the remaining activity after incubating at 65° C. for 30 minutes was measured. The remaining activity was measured in the same manner as in Example 1.

Row | Molecule | substrate specificity, relative value when the activity value with respect to butyric acid is 100 [1] | substrate specificity, relative value when the activity value with respect to butyric acid is 100 [2] | remaining activity [3]
1 | CCCCC(=O)O [Valeric acid] | 161% | 138% | –
2 | CCC(=O)O [Propionic acid] | 62% | 41% | –
3 | CC(C)CC(=O)O [Isovaleric acid] | 133% | 148% | –
4 | CCCCCC(=O)O [Caproic acid] | 22% | 56% | –
5 | CC(O)C(=O)O (centres unmarked) [Lactic acid] | 0% | 0% | –
6 | O=C(O)CCC(=O)O [Succinic acid] | 2% | 0% | –
7 | CCCCCCCC(=O)O [Octanoic acid] | 0% | 0% | –
8 | B1 | – | – | 48.7%
9 | B2 | – | – | 60.5%
10 | B3 | – | – | 14.7%
